Measurements: patent publication US20210300894A1, “CRYSTALLINE FORM OF N-[1-(5-CYANO-PYRIDIN-2-YLMETHYL)-1 H-PYRAZOL-3-YL]-2-[4-(1-TRIFLUO-ROMETHYL-CYCLOPROPYL)-PHENYL]-ACETAMIDE” (IDORSIA PHARMACEUTICALS LTD, priority 2017, published 2021)

Test: Gravimetric vapour sorption (GVS) analysis, moisture sorption at 25° C.
Assay type: physicochemical
Settings: stepping mode in steps of 5% RH, classification according to Ph. Eur.
Method: Gravimetric Vapour Sorption (GVS) Analysis
Measurements were performed on an IGASORP Model HAS-036-080 moisture sorption instrument (Hiden Isochema, Warrington, UK) operated in stepping mode at 25° C. The sample was allowed to equilibrate at the starting relative humidity (RH) before starting a pre-defined humidity program in steps of 5% ARH and with a maximal equilibration time of 24 hours per step. About 20 to 30 mg of each sample was used.

Moisture sorption at 25° C. (GVS), hygroscopicity according to Ph. Eur.: not hygroscopic according to Ph. Eur
SMILES: N#Cc1ccc(Cn2ccc(NC(=O)Cc3ccc(C4(C(F)(F)F)CC4)cc3)n2)nc1 [COMPOUND in crystalline form 1, N-[1-(5-cyano-pyridin-2-ylmethyl)-1H-pyrazol-3-yl]-2-[4-(1-trifluoromethyl-cyclopropyl)-phenyl]-acetamide]
